Source: PubChem BioAssay AID1845199 (Molecular Pharmacology Branch, DTP, NCI, 2023)

Tested on: 556581-035-R-J1 tumor spheroid viability, % test/control
Assay: Anticancer human tumor 556581-035-R-J1 patient-derived ovarian carcinoma cell line growth inhibition
Details: spheroids with HUVEC and MSC; for IC50: curve of first compound; for viability, T/C: stronger effect = lower value
In short: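 Complex tumor spheroids combined malignant cells with endothelial cells and mesenchymal stem cells. DNA-damaging drugs and DNA repair inhibitors were tested alone and in combination, at half-log dilutions down from clinical Cmax (top 10 microM if Cmax unknown), 0.25% DMSO final.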

[1] = second compound 0.003 µM, first compound 0.0316 µM
[2] = second compound 0.003 µM, first compound 0.1 µM
[3] = second compound 0.003 µM, first compound 0.316 µM
[4] = second compound 0.003 µM, first compound 1 µM
[5] = second compound 0.003 µM, first compound 3.16 µM
[6] = second compound 0.003 µM, first compound 10 µM
[7] = second compound 0.00949 µM, first compound 0.0316 µM
[8] = second compound 0.00949 µM, first compound 0.1 µM
[9] = second compound 0.00949 µM, first compound 0.316 µM
[10] = second compound 0.00949 µM, first compound 1 µM
[11] = second compound 0.00949 µM, first compound 3.16 µM
[12] = second compound 0.00949 µM, first compound 10 µM
[13] = second compound 0.03 µM, first compound 0.0316 µM
[14] = second compound 0.03 µM, first compound 0.1 µM
[15] = second compound 0.03 µM, first compound 0.316 µM
[16] = second compound 0.03 µM, first compound 1 µM
[17] = second compound 0.03 µM, first compound 3.16 µM
[18] = second compound 0.03 µM, first compound 10 µM
[19] = second compound 0.0949 µM, first compound 0.0316 µM
[20] = second compound 0.0949 µM, first compound 0.1 µM
[21] = second compound 0.0949 µM, first compound 0.316 µM
[22] = second compound 0.0949 µM, first compound 1 µM
[23] = second compound 0.0949 µM, first compound 3.16 µM
[24] = second compound 0.0949 µM, first compound 10 µM
[25] = second compound 0.3 µM, first compound 0.0316 µM
[26] = second compound 0.3 µM, first compound 0.1 µM
[27] = second compound 0.3 µM, first compound 0.316 µM
[28] = second compound 0.3 µM, first compound 1 µM
[29] = second compound 0.3 µM, first compound 3.16 µM
[30] = second compound 0.3 µM, first compound 10 µM
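Also: spheroids exposed to compounds for 7 days before viability read.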

Structure (SMILES)	IC50 (second compound 0.003 µM) [nM]	IC50 (second compound 0.00949 µM) [nM]	IC50 (second compound 0.03 µM) [nM]	IC50 (second compound 0.0949 µM) [nM]	IC50 (second compound 0.3 µM) [nM]	viability, T/C [1] [%]	viability, T/C [2] [%]	viability, T/C [3] [%]	viability, T/C [4] [%]	viability, T/C [5] [%]	viability, T/C [6] [%]	viability, T/C [7] [%]	viability, T/C [8] [%]	viability, T/C [9] [%]	viability, T/C [10] [%]	viability, T/C [11] [%]	viability, T/C [12] [%]	viability, T/C [13] [%]	viability, T/C [14] [%]	viability, T/C [15] [%]	other results
CC(C)n1c(=O)n(C)c2cnc3cc(F)c(-c4ccc(OCCCN5CCCCC5)nc4)cc3c21 + CC[C@@]1(O)C(=O)OCc2c1cc1n(c2=O)Cc2cc3c(CN(C)C)c(O)ccc3nc2-1	> 10000	> 10000	> 10000	3370	< 31.6	84.2	85.9	80.6	82.4	62	60.6	81.9	76.4	77.6	77	72.7	58.9	75	73.5	71	viability, T/C [16]: 72.1%; viability, T/C [17]: 66.5%; viability, T/C [18]: 54.5%; viability, T/C [19]: 49.7%; viability, T/C [20]: 51.4%; viability, T/C [21]: 51.7%; viability, T/C [22]: 55.3%; viability, T/C [23]: 50.3%; viability, T/C [24]: 36.8%; viability, T/C [25]: 12.3%; viability, T/C [26]: 12.5%; viability, T/C [27]: 13.1%; viability, T/C [28]: 13.6%; viability, T/C [29]: 12.1%; viability, T/C [30]: 11.6%
CC1COCCN1c1cc(-c2ccnn2C)c2ccnc(-c3ccn[nH]3)c2n1 (stereo not given) + CC[C@@]1(O)C(=O)OCc2c1cc1n(c2=O)Cc2cc3c(CN(C)C)c(O)ccc3nc2-1	317	141	< 31.6	< 31.6	< 31.6	85.3	66.5	50.2	39	33.7	30.8	68.9	53.5	40.9	38.1	31.6	29.2	42	35.3	35.5	viability, T/C [16]: 35.1%; viability, T/C [17]: 29.8%; viability, T/C [18]: 28.4%; viability, T/C [19]: 21.6%; viability, T/C [20]: 20%; viability, T/C [21]: 20.5%; viability, T/C [22]: 26.5%; viability, T/C [23]: 27.1%; viability, T/C [24]: 27%; viability, T/C [25]: 4.51%; viability, T/C [26]: 5.08%; viability, T/C [27]: 6.11%; viability, T/C [28]: 10.5%; viability, T/C [29]: 16.3%; viability, T/C [30]: 15.6%
COc1cc(C)[nH]c(=O)c1CN1CCc2c(Cl)cc(C(OC)C3COC3)c(Cl)c2C1=O (stereo not given) + CC[C@@]1(O)C(=O)OCc2c1cc1n(c2=O)Cc2cc3c(CN(C)C)c(O)ccc3nc2-1	> 10000	> 10000	> 10000	< 31.6	< 31.6	93.5	103	98.2	101	101	94.9	90	92.1	85.8	87.1	91.5	86.3	64.9	65.1	64.3	viability, T/C [16]: 65.3%; viability, T/C [17]: 67.9%; viability, T/C [18]: 65.4%; viability, T/C [19]: 45.3%; viability, T/C [20]: 48.7%; viability, T/C [21]: 49.9%; viability, T/C [22]: 49.2%; viability, T/C [23]: 47.9%; viability, T/C [24]: 47.1%; viability, T/C [25]: 13.2%; viability, T/C [26]: 9.94%; viability, T/C [27]: 12.4%; viability, T/C [28]: 12%; viability, T/C [29]: 10.7%; viability, T/C [30]: 11.1%
COc1ccc([C@@H](O)c2cc(-c3ncnc4cc(N5CCOCC5)ccc34)c(F)cc2Cl)nn1 + CC[C@@]1(O)C(=O)OCc2c1cc1n(c2=O)Cc2cc3c(CN(C)C)c(O)ccc3nc2-1	1960	1540	785	< 31.6	< 31.6	99.8	99.8	83.4	63.7	40.5	31	85	86.9	75.3	57.8	37.8	31.2	70.9	64	62.9	viability, T/C [16]: 46.6%; viability, T/C [17]: 33.7%; viability, T/C [18]: 29.5%; viability, T/C [19]: 48.6%; viability, T/C [20]: 47.6%; viability, T/C [21]: 50.5%; viability, T/C [22]: 41.8%; viability, T/C [23]: 30.8%; viability, T/C [24]: 25.5%; viability, T/C [25]: 13.7%; viability, T/C [26]: 11.9%; viability, T/C [27]: 11.6%; viability, T/C [28]: 13.2%; viability, T/C [29]: 17.4%; viability, T/C [30]: 18.5%
[2H]c1nc(C)nc([2H])c1-c1cc(NC[C@@H](C)c2cccc3c(C(=O)NC)ccnc23)ncn1 + CC[C@@]1(O)C(=O)OCc2c1cc1n(c2=O)Cc2cc3c(CN(C)C)c(O)ccc3nc2-1	> 10000	> 10000	> 10000	5690	< 31.6	101	104	101	104	102	101	94.9	101	95.7	89.8	93.7	93.1	78.7	75.7	72.4	viability, T/C [16]: 74.5%; viability, T/C [17]: 78.3%; viability, T/C [18]: 79%; viability, T/C [19]: 54.6%; viability, T/C [20]: 56%; viability, T/C [21]: 55.6%; viability, T/C [22]: 52.6%; viability, T/C [23]: 50.7%; viability, T/C [24]: 49%; viability, T/C [25]: 13.8%; viability, T/C [26]: 13.9%; viability, T/C [27]: 11.5%; viability, T/C [28]: 9.66%; viability, T/C [29]: 12.9%; viability, T/C [30]: 8.88%
